Measurements: publication PMC6848146, “Binding and structural analyses of potent inhibitors of the human Ca^2+/calmodulin dependent protein kinase kinase 2 (CAMKK2) identified from a collection of commercially-available kinase inhibitors” (Scientific Reports, 2019)
Like-named read-outs stand apart in the source and are kept apart here. Marks after values point to notes of the source that are not given here.

Columns and labels:
CAMKK1-FL = biological target: T1, CAMKK1-FL (Homo sapiens, UniProt Q8N5S9); test: Radiometric enzymatic assay (Eurofins Discovery), Ca2+/Calmodulin present; type: biochemical; details: 200 µM ATP; single measurement
T1 construct: purchased Eurofins Discovery (MO, USA), assay service
Method: All compounds employed in this study were initially developed to target other human protein kinases, and some are known to be quite promiscuous[18],[21].
Reaction conditions for assays using CAMKK1-FL were: 8 mM MOPS pH 7.0, 0.2 mM EDTA, 0.33 mg/mL MBP (myelin basic protein), 0.5 mM calcium chloride, 0.016 mg/ml calmodulin, 10 mM magnesium acetate and [gamma-^33P-ATP] (200 µM). […] The reactions were initiated by the addition of a Mg^2+-ATP mixture. After incubation for 40 minutes at room temperature, the reaction was stopped by the addition of phosphoric acid to a final concentration of 0.5%. […] Following subtraction of the average inhibitor control well counts, results were expressed as a percentage of the mean kinase activity in the positive control sample.

CAMKK2-KD = CAMKK2-KD (Homo sapiens, UniProt Q96RR4); test: Isothermal titration calorimetry (reverse titration); details: 20 °C
Sequence of CAMKK2-KD (Q96RR4 161-449): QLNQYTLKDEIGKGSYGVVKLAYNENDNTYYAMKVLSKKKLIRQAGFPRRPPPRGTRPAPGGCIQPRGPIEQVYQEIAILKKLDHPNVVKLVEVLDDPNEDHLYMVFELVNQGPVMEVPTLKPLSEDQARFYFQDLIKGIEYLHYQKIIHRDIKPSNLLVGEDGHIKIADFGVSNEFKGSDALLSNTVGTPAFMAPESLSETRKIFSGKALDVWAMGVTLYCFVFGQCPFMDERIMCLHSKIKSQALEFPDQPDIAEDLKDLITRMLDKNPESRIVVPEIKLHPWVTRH
Method: All ITC experiments described below were performed twice.
Measurements were made using a MicroCal AutoITC200 (Malvern, United Kingdom). […] Small molecule inhibitors were diluted in dialysis buffer. All ITC experiments were performed using a “reverse titration” setup in which the protein (in the syringe) was titrated into the cell containing the inhibitor. Two independent ITC measurements were performed for each compound, data for individual runs were integrated separately to obtain single isotherms, which were plotted and analyzed using Sedphat[37]. […] All measurements were made at 20 °C with mixing (1,000 rpm stirring), and used 1.5 µL injections and 180 s between each injection. NITPIC, SEDPHAT and GUSSI[37] were used to analyze and generate figures for ITC data.

[1] = biological target: T2, CAMKK2-KD (kinase domain of CAMKK2) (Homo sapiens, UniProt Q96RR4); test: DSF thermal-shift screen, 384-well format; type: binding; details: 10 µM compound, 1 µM kinase, 0.1% DMSO, single measurement
T2 construct: the protein kinase domain (amino acids 161–449); hexahistidine (6xHis), TEV-cleavable; made in house
T2 sequence (Q96RR4 161-449): as above
Method: (§1) We employed a thermal-shift assay (Differential Scanning Fluorimetry, DSF)[19] to identify compounds that can bind to the kinase domain of CAMKK2 (CAMKK2-KD). Protein thermal denaturation curves (Fig. 1A,B) were used to calculate the denaturation midpoint temperature (Tm) for the kinase domain of CAMKK2 in the presence of ligands or vehicle only (DMSO). […] DSF screens were performed on purified CAMKK2-KD using a library of commercially available, chemically diverse, ATP-competitive, kinase inhibitors.
DSF experiments in 384-well format followed a protocol previously established at the SGC-UNICAMP and described elsewhere.
The compounds, previously solubilized in DMSO, were used at 10 µM final concentration and 0.1% DMSO. Plates were sealed using optically clear films and transferred to a QuantStudio 6 qPCR instrument (Applied Biosystems). […] Protein in 0.1% DMSO was used as a reference.
(§2) For both formats, experiments were performed in singlets.

CAMKK2-FL = biological target: T3, CAMKK2-FL (Homo sapiens, UniProt Q96RR4); test: Radiometric enzymatic assay (Eurofins Discovery), Ca2+/Calmodulin present; type: biochemical; details: for fold more active towards CAMKK2-FL than CAMKK1-FL: from IC50 values of Table 1; for IC50: 90 µM ATP, single measurement
T3 construct: an enzymatic assay using the full-length protein (CAMKK2-FL); purchased Eurofins Discovery (MO, USA), assay service

[2] = biological target: T2, CAMKK2-KD (kinase domain of CAMKK2); test: DSF thermal-shift screen, 96-well format; type: binding; details: 96-well format; 12 µM compound, 2 µM kinase, 2.5% DMSO; single measurement; read-out: ΔTm
Method: as §1
SYPRO Orange dye (Invitrogen) was used in 5X as final concentration.
Plates were sealed using optically clear films and transferred to an Mx3005p RT-PCR machine (Agilent).
as §2

CAMKK1 = system: CAMKK1; design: method as in Anastassiadis et al. (2011); details: 0.5 µM compound; ref Anastassiadis et al. (2011); cited from earlier work
CAMKK2 = system: CAMKK2; design: method as in Anastassiadis et al. (2011); details: 0.5 µM compound; ref Anastassiadis et al. (2011); cited from earlier work
[3] = system: six other kinases (panel of 92 protein kinases); design: method as in PMID 17850214; details: screened against a panel of only 92 protein kinases; cited from earlier work
[4] = individual ITC experiment, run 1
[5] = individual ITC experiment, run 2

Structure (SMILES)	IC50 (CAMKK1-FL) [nM]	ΔH Run 1 (CAMKK2-KD; [4]) [kcal/mol]	ΔG Run 2 (CAMKK2-KD; [5]) [kcal/mol]	ΔH Run 2 (CAMKK2-KD; [5]) [kcal/mol]	fold more active towards CAMKK2-FL than CAMKK1-FL (CAMKK2-FL)	IC50 (CAMKK2-FL) [nM]	% Activity Remaining at 0.5 µM, CAMKK1 (CAMKK1) [%]	% Activity Remaining at 0.5 µM, CAMKK2 (CAMKK2) [%]	other results
CC(C)[C@H](CO)Nc1nc(Nc2cc(N)cc(Cl)c2)c2ncn(C(C)C)c2n1 [Aminopurvalanol]	188					159	86.8	33.3	ΔTm at 12 µM [2]: 9.7 °C
O=C(O)c1ccc2c3c1cccc3c(=O)n1c3ccccc3nc21 [STO-609]									IC50 [3]: < 250 nM
CN[C@@H]1C[C@H]2O[C@@](C)([C@@H]1OC)n1c3ccccc3c3c4c(c5c6ccccc6n2c5c31)C(=O)NC4 [Staurosporine]							-3.13	0.24	

Second part, led by results:

IC50 (CAMKK1-FL) [nM]	ΔH Run 1 (CAMKK2-KD; [4]) [kcal/mol]	ΔG Run 2 (CAMKK2-KD; [5]) [kcal/mol]	ΔH Run 2 (CAMKK2-KD; [5]) [kcal/mol]	fold more active towards CAMKK2-FL than CAMKK1-FL (CAMKK2-FL)	IC50 (CAMKK2-FL) [nM]	Structure (SMILES)	% Activity Remaining at 0.5 µM, CAMKK1 (CAMKK1) [%]	% Activity Remaining at 0.5 µM, CAMKK2 (CAMKK2) [%]	other results
182	-10.3	-10.9	-9.73	~ 10 fold		COc1cc(N2CCC(N(C)C)CC2)ccc1Nc1ncc(Cl)c(Nc2ccccc2P(C)(C)=O)n1 [ALK-IN-1]			Kd (CAMKK2-KD; read-out: ITC KD, serial integrations of two independent experiments): 2 nM; Kd (CAMKK2-KD; read-out: KD Run 1, individual ITC experiment, run 1): 2.5 nM; Kd (CAMKK2-KD; read-out: KD Run 2, individual ITC experiment, run 2): 2 nM; ΔTm [1]: 11.2^d °C
122	-13.2	-11.8	-13	~ 10 fold	19	COCCOc1ccc2c(c1)ncn2-c1ccc2cccc(N3CCC(N)CC3)c2n1 [CP-673451]			Kd (CAMKK2-KD; ITC KD, serial integrations of two independent experiments): 2 nM; Kd (CAMKK2-KD; KD Run 1, individual ITC experiment, run 1): 2.6 nM; Kd (CAMKK2-KD; KD Run 2, individual ITC experiment, run 2): 1.5 nM; ΔG Run 1 (CAMKK2-KD; [4]): -11.5 kcal/mol; ΔTm at 10 µM [1]: 10 °C
